From ChEMBL document CHEMBL1275557, “First countrywide survey of acquired metallo-beta-lactamases in gram-negative pathogens in Italy” (2008) come the findings set out here.

Values after ≈ are worked out from the molar mass of the structure shown. Where only a bound is given, the exact number is not on record here.

Holding throughout (format): functional
One assay concerns Pseudomonas putida. Briefly: Antibacterial activity against VIM-1 producing Pseudomonas putida isolate RM-11X-11 by Etest method.
The subject of assay [1] is Pseudomonas aeruginosa. Kind of assay: Antibacterial activity against metallo-beta-lactamase positive Pseudomonas aeruginosa assessed as percent susceptible isolates by Etest method.
Assay [2] has as its system Pseudomonas aeruginosa. Briefly: Antibacterial activity against VIM-1 producing Pseudomonas aeruginosa clone D1 isolate VA-06X-63 by Etest method.
Assay [3] concerns Pseudomonas aeruginosa. Kind of assay: Antibacterial activity against VIM-1 producing Pseudomonas aeruginosa clone A2 isolate NA-14X-32 by Etest method.
Assay [4] concerns Pseudomonas aeruginosa. Kind of assay: Antibacterial activity against VIM-2 producing Pseudomonas aeruginosa clone B3 isolate CR-04X-14 by Etest method.
The subject of assay [5] is Pseudomonas aeruginosa. Kind of assay: Antibacterial activity against IMP-13 producing Pseudomonas aeruginosa clone C1 isolate AV-13X-28 by Etest method.
The subject of assay [6] is Pseudomonas aeruginosa. Kind of assay: Antibacterial activity against VIM-1 producing Pseudomonas aeruginosa clone A3 isolate NA-14X-34 by Etest method.
Assay [7] has as its system Pseudomonas aeruginosa. Briefly: Antibacterial activity against VIM-1 producing Pseudomonas aeruginosa clone A1 isolate FG-17X-14 by Etest method.
In assay [8] the test system is Pseudomonas aeruginosa. Kind of assay: Antibacterial activity against VIM-1 producing Pseudomonas aeruginosa clone D2 isolate VA-06X-17 by Etest method.
Assay [9] deals with Pseudomonas aeruginosa. Kind of assay: Antibacterial activity against IMP-13 producing Pseudomonas aeruginosa clone C2 isolate NA-14X-10 by Etest method.
The subject of assay [10] is Pseudomonas aeruginosa. Briefly: Antibacterial activity against VIM-1 producing Pseudomonas aeruginosa clone F isolate RM-11X-09 by Etest method.
Assay [11] concerns Pseudomonas aeruginosa. Briefly: Antibacterial activity against VIM-1 producing Pseudomonas aeruginosa clone E isolate VA-06X-29 by Etest method.
Another assay relates to Enterobacter cloacae. Briefly: Antibacterial activity against VIM-1 producing Enterobacter cloacae isolate TO-16X-51 by Etest method.
In assay [12] the test system is Pseudomonas aeruginosa. Kind of assay: Antibacterial activity against VIM-1 producing Pseudomonas aeruginosa clone D3 isolate VA-06X-65 by Etest method.
For assay [13], the system named is Pseudomonas aeruginosa. Briefly: Antibacterial activity against VIM-2 producing Pseudomonas aeruginosa clone B3 isolate PV-05X-02 by Etest method.
Assay [14] relates to Pseudomonas aeruginosa. Briefly: Antibacterial activity against VIM-2 producing Pseudomonas aeruginosa clone B3 isolate PV-05X-07 by Etest method.
Assay [15] relates to Pseudomonas aeruginosa. Kind of assay: Antibacterial activity against VIM-2 producing Pseudomonas aeruginosa clone B2 isolate VA-06X-28 by Etest method.
For assay [16], the system named is Pseudomonas aeruginosa. Briefly: Antibacterial activity against IMP-13 producing Pseudomonas aeruginosa clone C3 isolate PG-12X-03 by Etest method.
Assay [17] relates to Pseudomonas aeruginosa. Briefly: Antibacterial activity against VIM-1 producing Pseudomonas aeruginosa clone A3 isolate FG-17X-08 by Etest method.
The subject of assay [18] is Pseudomonas aeruginosa. Briefly: Antibacterial activity against VIM-1 producing Pseudomonas aeruginosa clone A2 isolate NA-14X-21 by Etest method.
The test system of assay [19] is Pseudomonas aeruginosa. Briefly: Antibacterial activity against IMP-13 producing Pseudomonas aeruginosa clone C2 isolate NA-14X-11 by Etest method.
Assay [20] has as its system Pseudomonas aeruginosa. Kind of assay: Antibacterial activity against VIM-1 producing Pseudomonas aeruginosa clone D4 isolate VA-06X-47 by Etest method.
Assay [21] has as its system Pseudomonas aeruginosa. Kind of assay: Antibacterial activity against VIM-1 producing Pseudomonas aeruginosa clone D isolate VA-06X-69 by Etest method.
Assay [22] relates to Pseudomonas aeruginosa. Kind of assay: Antibacterial activity against VIM-1 producing Pseudomonas aeruginosa clone D2 isolate VA-06X-16 by Etest method.
Assay [23] deals with Pseudomonas aeruginosa. Briefly: Antibacterial activity against IMP-13 producing Pseudomonas aeruginosa clone C2 isolate NA-14X-12 by Etest method.
Assay [24] has as its system Pseudomonas aeruginosa. Briefly: Antibacterial activity against VIM-1 producing Pseudomonas aeruginosa clone G isolate NA-14X-13 by Etest method.
For assay [25], the system named is Pseudomonas aeruginosa. Briefly: Antibacterial activity against VIM-2 producing Pseudomonas aeruginosa clone B1 isolate SS-09X-45 by Etest method.
In assay [26] the test system is Pseudomonas aeruginosa. Briefly: Antibacterial activity against IMP-13 producing Pseudomonas aeruginosa clone C2 isolate NA-14X-02 by Etest method.
Assay [27] has as its system Pseudomonas aeruginosa. Briefly: Antibacterial activity against VIM-2 producing Pseudomonas aeruginosa clone B2 isolate VA-06X-38 by Etest method.
Assay [28] deals with Pseudomonas aeruginosa. Briefly: Antibacterial activity against VIM-2 producing Pseudomonas aeruginosa clone B2 isolate VA-06X-20 by Etest method.
Assay [29] relates to Pseudomonas aeruginosa. Kind of assay: Antibacterial activity against VIM-1 producing Pseudomonas aeruginosa clone A2 isolate NA-14X-26 by Etest method.

For orientation: MIC means the lowest concentration found to suppress growth. Lower therefore signals inhibition by little substance. In turn, `C[C@H]1[C@H](NC(=O)/C(=N\OC(C)(C)C(=O)O)c2csc(N)n2)C(=O)N1S(=O)(=O)O` [AZTREONAM] had an MIC against Pseudomonas putida of 8 µg/mL (≈ 18.4 µM). In the assay with Pseudomonas aeruginosa [1], the Activity is recorded as 75%.

`CC(C)(O/N=C(\C(=O)N[C@@H]1C(=O)N2C(C(=O)[O-])=C(C[n+]3ccccc3)CS[C@H]12)c1csc(N)n1)C(=O)O` [CEFTAZIDIME]: the MIC was over 128 µg/mL against Pseudomonas aeruginosa [2]; over 128 µg/mL against Pseudomonas aeruginosa [3]; 64 µg/mL (≈ 117 µM) in the assay on Pseudomonas aeruginosa [4]; over 128 µg/mL in the assay with Pseudomonas putida; over 128 µg/mL with Pseudomonas aeruginosa [5]; over 128 µg/mL against Pseudomonas aeruginosa [6]. Moreover, the MIC in the assay on Pseudomonas aeruginosa [7], against Pseudomonas aeruginosa [8], in the assay with Pseudomonas aeruginosa [9], in the assay with Pseudomonas aeruginosa [10], in the assay with Pseudomonas aeruginosa [11] and against Enterobacter cloacae was over 128 µg/mL throughout. The MIC against Pseudomonas aeruginosa [12] was over 128 µg/mL; against Pseudomonas aeruginosa [13], 32 µg/mL (≈ 58.5 µM); with Pseudomonas aeruginosa [14], 32 µg/mL (≈ 58.5 µM); in the assay with Pseudomonas aeruginosa [15], 64 µg/mL (≈ 117 µM); in the assay with Pseudomonas aeruginosa [16], over 128 µg/mL; against Pseudomonas aeruginosa [17] it was over 128 µg/mL. Further, the MIC in the assay on Pseudomonas aeruginosa [18], in the assay on Pseudomonas aeruginosa [19], with Pseudomonas aeruginosa [20], against Pseudomonas aeruginosa [21], in the assay on Pseudomonas aeruginosa [22] and against Pseudomonas aeruginosa [23] was over 128 µg/mL in each case. Also, the MIC in the assay with Pseudomonas aeruginosa [24] is over 128 µg/mL; against Pseudomonas aeruginosa [25] it was over 128 µg/mL; in the assay on Pseudomonas aeruginosa [26], over 128 µg/mL; against Pseudomonas aeruginosa [27], 48 µg/mL (≈ 87.8 µM); in the assay with Pseudomonas aeruginosa [28] it was 64 µg/mL (≈ 117 µM); in the assay with Pseudomonas aeruginosa [29], over 128 µg/mL.

As to `O=C(O)c1cn(C2CC2)c2cc(N3CCNCC3)c(F)cc2c1=O` [CIPROFLOXACIN], the MIC in the assay on Pseudomonas putida came to 0.06 µg/mL (≈ 0.181 µM).

For the molecule `C[C@H]1COc2c(N3CCN(C)CC3)c(F)cc3c(=O)c(C(=O)O)cn1c23.C[C@H]1COc2c(N3CCN(C)CC3)c(F)cc3c(=O)c(C(=O)O)cn1c23.O` [LEVOFLOXACIN], the minimal inhibitory concentration (MIC) against Pseudomonas aeruginosa [2] was over 32 µg/mL; against Pseudomonas aeruginosa [3] it was over 32 µg/mL; in the assay on Pseudomonas aeruginosa [4], over 32 µg/mL; in the assay with Pseudomonas putida, 0.25 µg/mL; against Pseudomonas aeruginosa [5] it was over 32 µg/mL; against Pseudomonas aeruginosa [6], over 32 µg/mL. Moreover, the minimal inhibitory concentration (MIC) with Pseudomonas aeruginosa [7], against Pseudomonas aeruginosa [8], in the assay on Pseudomonas aeruginosa [9], in the assay on Pseudomonas aeruginosa [10], against Pseudomonas aeruginosa [11] and in the assay on Enterobacter cloacae was over 32 µg/mL throughout. Moreover, the MIC with Pseudomonas aeruginosa [12], against Pseudomonas aeruginosa [13], in the assay on Pseudomonas aeruginosa [14], in the assay on Pseudomonas aeruginosa [15], against Pseudomonas aeruginosa [16] and in the assay on Pseudomonas aeruginosa [17] was over 32 µg/mL in each case. Moreover, the MIC in the assay with Pseudomonas aeruginosa [18], in the assay with Pseudomonas aeruginosa [19], in the assay on Pseudomonas aeruginosa [20], in the assay on Pseudomonas aeruginosa [21], against Pseudomonas aeruginosa [22] and in the assay on Pseudomonas aeruginosa [23] was over 32 µg/mL in each case. The MIC with Pseudomonas aeruginosa [24], in the assay on Pseudomonas aeruginosa [25], in the assay on Pseudomonas aeruginosa [26], in the assay on Pseudomonas aeruginosa [27], in the assay with Pseudomonas aeruginosa [28] and with Pseudomonas aeruginosa [29] was over 32 µg/mL in each case.

For `C[C@@H](O)[C@H]1C(=O)N2C(C(=O)O)=C(S[C@@H]3CN[C@H](C(=O)N(C)C)C3)[C@H](C)[C@H]12` [MEROPENEM], the MIC against Pseudomonas aeruginosa [2] was over 32 µg/mL; with Pseudomonas aeruginosa [3], over 32 µg/mL; with Pseudomonas aeruginosa [4] it was over 32 µg/mL; against Pseudomonas putida, over 32 µg/mL; in the assay with Pseudomonas aeruginosa [5] it was 8 µg/mL (≈ 20.9 µM); in the assay with Pseudomonas aeruginosa [6], over 32 µg/mL. Moreover, the MIC with Pseudomonas aeruginosa [7] is over 32 µg/mL; against Pseudomonas aeruginosa [8], over 32 µg/mL; in the assay with Pseudomonas aeruginosa [9], over 32 µg/mL; in the assay with Pseudomonas aeruginosa [10], over 32 µg/mL; against Pseudomonas aeruginosa [11], over 32 µg/mL; in the assay on Enterobacter cloacae, 2 µg/mL (≈ 5.22 µM). The MIC against Pseudomonas aeruginosa [12] is over 32 µg/mL; with Pseudomonas aeruginosa [13], 8 µg/mL (≈ 20.9 µM); in the assay on Pseudomonas aeruginosa [14], 8 µg/mL (≈ 20.9 µM); with Pseudomonas aeruginosa [15], over 32 µg/mL; in the assay with Pseudomonas aeruginosa [16], over 32 µg/mL; with Pseudomonas aeruginosa [17], over 32 µg/mL. Besides, the MIC with Pseudomonas aeruginosa [18], with Pseudomonas aeruginosa [19], against Pseudomonas aeruginosa [20], in the assay with Pseudomonas aeruginosa [21], against Pseudomonas aeruginosa [22] and against Pseudomonas aeruginosa [23] was over 32 µg/mL each time. Besides, the minimum inhibitory concentration (MIC) in the assay on Pseudomonas aeruginosa [24], with Pseudomonas aeruginosa [25], in the assay on Pseudomonas aeruginosa [26], in the assay with Pseudomonas aeruginosa [27], against Pseudomonas aeruginosa [28] and against Pseudomonas aeruginosa [29] was over 32 µg/mL throughout.

Consider COLISTIN, for which the MIC in the assay on Pseudomonas aeruginosa [2] stood at 1 µg/mL; against Pseudomonas aeruginosa [3] it was 2 µg/mL; with Pseudomonas aeruginosa [4], 2 µg/mL; in the assay on Pseudomonas putida, 0.25 µg/mL; in the assay with Pseudomonas aeruginosa [5] it was 2 µg/mL; in the assay with Pseudomonas aeruginosa [6] it was 2 µg/mL. Besides, the MIC against Pseudomonas aeruginosa [7] was determined as 1 µg/mL; in the assay with Pseudomonas aeruginosa [8] it was 1 µg/mL; against Pseudomonas aeruginosa [9], 0.5 µg/mL; against Pseudomonas aeruginosa [10], 1 µg/mL; with Pseudomonas aeruginosa [11], 2 µg/mL; against Enterobacter cloacae it was 0.25 µg/mL. Also, the MIC with Pseudomonas aeruginosa [12] worked out at 0.5 µg/mL; with Pseudomonas aeruginosa [13] it was 1 µg/mL; against Pseudomonas aeruginosa [14], 1 µg/mL; against Pseudomonas aeruginosa [15] it was 1 µg/mL; in the assay on Pseudomonas aeruginosa [16], 0.5 µg/mL; in the assay on Pseudomonas aeruginosa [17] it was 0.5 µg/mL. The MIC in the assay on Pseudomonas aeruginosa [18] turned out to be 2 µg/mL; against Pseudomonas aeruginosa [19], 0.5 µg/mL; against Pseudomonas aeruginosa [20], 1 µg/mL; in the assay on Pseudomonas aeruginosa [21] it was 1 µg/mL; in the assay with Pseudomonas aeruginosa [22] it was 1 µg/mL; against Pseudomonas aeruginosa [23], 0.5 µg/mL. Besides, the MIC turned out to be 2 µg/mL with Pseudomonas aeruginosa [24]; 2 µg/mL in the assay on Pseudomonas aeruginosa [25]; 0.5 µg/mL in the assay on Pseudomonas aeruginosa [26]; 1 µg/mL with Pseudomonas aeruginosa [27]; 1 µg/mL against Pseudomonas aeruginosa [28]; 2 µg/mL with Pseudomonas aeruginosa [29].

Consider GENTAMICIN, for which the MIC against Pseudomonas aeruginosa [2] is over 128 µg/mL; with Pseudomonas aeruginosa [3], over 128 µg/mL; in the assay with Pseudomonas aeruginosa [4], 8 µg/mL; against Pseudomonas putida, 4 µg/mL; in the assay on Pseudomonas aeruginosa [5], over 128 µg/mL; with Pseudomonas aeruginosa [6] it was over 128 µg/mL. Moreover, the MIC with Pseudomonas aeruginosa [7] is over 128 µg/mL; with Pseudomonas aeruginosa [8] it was over 128 µg/mL; with Pseudomonas aeruginosa [9], over 128 µg/mL; against Pseudomonas aeruginosa [10], over 128 µg/mL; against Pseudomonas aeruginosa [11], over 128 µg/mL; in the assay on Enterobacter cloacae, 2 µg/mL. The minimal inhibitory concentration (MIC) against Pseudomonas aeruginosa [12] was over 128 µg/mL; against Pseudomonas aeruginosa [13], 8 µg/mL; in the assay on Pseudomonas aeruginosa [14] it was 8 µg/mL; with Pseudomonas aeruginosa [15] it was 8 µg/mL; in the assay on Pseudomonas aeruginosa [16] it was over 128 µg/mL; in the assay on Pseudomonas aeruginosa [17], over 128 µg/mL. Further, the MIC in the assay with Pseudomonas aeruginosa [18], in the assay with Pseudomonas aeruginosa [19], in the assay on Pseudomonas aeruginosa [20], against Pseudomonas aeruginosa [21], with Pseudomonas aeruginosa [22] and against Pseudomonas aeruginosa [23] was over 128 µg/mL in each case. Moreover, the MIC is over 128 µg/mL in the assay with Pseudomonas aeruginosa [24]; over 128 µg/mL against Pseudomonas aeruginosa [25]; over 128 µg/mL in the assay on Pseudomonas aeruginosa [26]; 8 µg/mL against Pseudomonas aeruginosa [27]; 8 µg/mL against Pseudomonas aeruginosa [28]; over 128 µg/mL in the assay with Pseudomonas aeruginosa [29].
